How the values were obtained:
[1] = system: mixed inoculum of bacteria; assay: MIC and synergy (K) in nutrient broth, microtiter plates; assay type: cell-based
Experimental: Stock solutions of each product were prepared in sterile distilled water. Synergism was measured by the method first described by F. C. Kull, P. C. Eisman, H. D. Sylwestrowicz and R. L. Mayer in Applied Microbiology, 9, 538-41 ([…]). This manner of determining synergism has been widely used and is industrially acceptable. It is believed that the specified method is sufficient in explaining the process. However for a further description, reference can be made to U.S. Pat. No. 3,231,509 and its file history, where this type of data was considered acceptable.
• 1. Incubator capable of maintaining a variable temperature range (25-45 C) • 2. Samples of each biocide or test compound to be examined • 3. Microtiter plates—96 well with lid, sterile. • 4. 8-12 channel micropipetting device capable of pipetting 0-250 ul volumes • 5. Micropipette tips capable of holding up to 250 ul volumes • 6. Sterile microbiological culture broth. Trypticase Soy Broth (TSB) or Nutrient Broth (NB) is recommended for bacteria and Sabouraud Maltose Broth (SMB) or Sabouraud Dextrose Broth (SDB) is recommended for yeasts and molds. In the case of this particular study the microbiological culture medium was Nutrient Broth at pH 7.0, 8.0 and 9.0. • 7. Pure cultures of microorganisms of choice grown on appropriate agar medium • 8. Sterile distilled water • 9. 100 mL volumetric flasks (one for each biocide to be tested) • 10. Sterile 10 mL tubes of Phosphate buffer (Butterfield's buffer pH 7.2+/−0.2). Contains purified water, monobasic potassium phosphate and sodium hydroxide for pH adjustment. • 11. Sterile cotton swabs • 12. 0.5 MacFarland Turbidity Standard
The day before testing, perform a streak plate of each organism to be tested on an appropriate agar medium (Trypticase Soy Agar). Organisms tested in this study were: Wild strain bacteria isolated from previously contaminated industrial systems and which were identified as: Pseudomonas sp., Escherchia coli , Enterobacter sp., Alcaligenes sp. and Alcaligenes faecalis. On the day of the test, use a sterile cotton swab to harvest some of the growth. Place swab into a tube containing 10 mL sterile phosphate buffer. Compare and adjust the turbidity of the organisms in the tube to 1×10^8 cfu/mL using a 0.5 MacFarland Turbidity Standard. Dilute the 10 mL tube into 90 mL of sterile 2× nutrient broth at pH 7.0, 8.0 and 9.0.
1. Design the layout of the microtiter plates based on the number of organisms to test and the number of biocides and desired concentrations to test. A separate microtiter plate is required for testing each biocide alone, in addition to the combination microtiter plate. 2. Prepare a working stock solution of each biocide to be tested. For the combination microtiter plate, the working stock solution of Biocide A will be 8× the concentration desired in the first well of the combination microtiter plate. The working stock solution of Biocide B will be 4× the concentration desired in the first well of the combination microtiter plate. For the alone microtiter plates, the working stock solutions of Biocide A and Biocide B will both be 4× the concentration desired in the first well of the single biocide microtiter plates.
Dodecylguanidine hydrochloride: (For combination plates) A solution of this product which is 35% active, was made as follows: […]=8000 ppm active=8000/0.35=22,857 ppm, 2.28 g into 100 mL sterile diH2O. Levels to test are: 1000 ppm, 500 ppm, 250 ppm, 125 ppm, 62.5 ppm, 31.2 ppm, 15.6 ppm, 7.8 ppm, 3.9 ppm, 1.95 ppm
Ortho-PhenylPhenol: (For combination plates) Make a solution of this product which is 99% active, 4×125=500 ppm active=500/0.99=505 ppm, 0.05 g into 100 mL MeOH and sterile diH2O. Level to test is 125 ppm.
3. Place 50 ul of sterile distilled water in all of the rows in columns 1 through 10, and 100 ul of sterile distilled water in all of the rows in columns 11 and 12 of the 96 well combination microtiter plate. […]

[2] = system: wild strain bacteria isolated from previously contaminated systems; assay: In-Can Preservation Test of paint samples; assay type: cell-based; conditions: for Effective Preservative (ppm): two inoculation challenge; on Microbial growth, 1st Inoculation, 1st sub-column: key: 4 = Heavy Microbial Growth; 3 = Moderate Microbial Growth; 2 = Slight Microbial Growth; 1 = Trace Microbial Growth; 0 = No Microbial Growth; on Microbial growth, 1st Inoculation, 2nd sub-column: key: 4 = Heavy Microbial Growth; 3 = Moderate Microbial Growth; 2 = Slight Microbial Growth; 1 = Trace Microbial Growth; 0 = No Microbial Growth; on Microbial growth, 2nd Inoculation, 1st sub-column: key: 4 = Heavy Microbial Growth; 3 = Moderate Microbial Growth; 2 = Slight Microbial Growth; 1 = Trace Microbial Growth; 0 = No Microbial Growth; on Microbial growth, 2nd Inoculation, 2nd sub-column: key: 4 = Heavy Microbial Growth; 3 = Moderate Microbial Growth; 2 = Slight Microbial Growth; 1 = Trace Microbial Growth; 0 = No Microbial Growth
Experimental: Preservation Testing was performed on the three paint samples: Acrylic Flat, Acrylic and Vinyl Acrylic. Each sample was treated with various levels OPP, DGH individually and a mixture of OPP and DGH. All samples were then inoculated with wild strain bacteria isolated from previously contaminated systems. Following the initial inoculation, the samples were reinoculated on day 7. This testing scenario best simulates what happens in a “real world” situation. […]

[3] = Table 2 paint (Acrylic Flat / Vinyl Acrylic Flat), 1000 ppm
[4] = Table 2 paint (Acrylic Flat / Vinyl Acrylic Flat), 1500 ppm
[5] = Table 2 paint (Acrylic Flat / Vinyl Acrylic Flat), 2000 ppm
[6] = Table 2 paint (Acrylic Flat / Vinyl Acrylic Flat), 2500 ppm
[7] = Table 2 paint (Acrylic Flat / Vinyl Acrylic Flat), 3000 ppm
[8] = Table 2 paint (Acrylic Flat / Vinyl Acrylic Flat), 3500 ppm
[9] = Table 2 paint (Acrylic Flat / Vinyl Acrylic Flat), 4000 ppm
[10] = Table 3 paint (Vinyl Acrylic Flat / Acrylic Flat), 1000 ppm
[11] = Table 3 paint (Vinyl Acrylic Flat / Acrylic Flat), 1500 ppm
[12] = Table 3 paint (Vinyl Acrylic Flat / Acrylic Flat), 2000 ppm
[13] = Table 3 paint (Vinyl Acrylic Flat / Acrylic Flat), 2500 ppm
[14] = Table 3 paint (Vinyl Acrylic Flat / Acrylic Flat), 3000 ppm
[15] = Table 3 paint (Vinyl Acrylic Flat / Acrylic Flat), 3500 ppm
[16] = Table 3 paint (Vinyl Acrylic Flat / Acrylic Flat), 4000 ppm

Oc1ccccc1-c1ccccc1 [OPP, Ortho-PhenylPhenol]
1.00: Synergy Index ([1]; pH 8.0, 1000 ppm NaOPP alone (0:100)) | Synergy Index ([1]; pH 9.0, 500 ppm NaOPP alone (0:100))
> 1000 µg/mL: MIC ([1]; pH 7, read-out: MIC, biocide alone)
0: Microbial growth, 1st Inoculation, 2nd sub-column [2, 16] | Microbial growth, 2nd Inoculation, 2nd sub-column [2, 16]
2: Microbial growth, 1st Inoculation, 1st sub-column [2, 10] | Microbial growth, 1st Inoculation, 2nd sub-column [2, 10] | Microbial growth, 2nd Inoculation, 1st sub-column [2, 10] | Microbial growth, 2nd Inoculation, 2nd sub-column [2, 10] | Microbial growth, 1st Inoculation, 1st sub-column [2, 11] | Microbial growth, 1st Inoculation, 2nd sub-column [2, 11] | Microbial growth, 2nd Inoculation, 1st sub-column [2, 11] | Microbial growth, 2nd Inoculation, 2nd sub-column [2, 11] | Microbial growth, 1st Inoculation, 1st sub-column [2, 12] | Microbial growth, 1st Inoculation, 2nd sub-column [2, 12] | Microbial growth, 2nd Inoculation, 1st sub-column [2, 12] | Microbial growth, 2nd Inoculation, 2nd sub-column [2, 12] | Microbial growth, 1st Inoculation, 1st sub-column [2, 13] | Microbial growth, 1st Inoculation, 2nd sub-column [2, 13] | Microbial growth, 2nd Inoculation, 1st sub-column [2, 13] | Microbial growth, 2nd Inoculation, 2nd sub-column [2, 13] | Microbial growth, 1st Inoculation, 1st sub-column [2, 14] | Microbial growth, 1st Inoculation, 2nd sub-column [2, 14] | Microbial growth, 2nd Inoculation, 1st sub-column [2, 14] | Microbial growth, 2nd Inoculation, 2nd sub-column [2, 14] | Microbial growth, 1st Inoculation, 1st sub-column [2, 15] | Microbial growth, 2nd Inoculation, 1st sub-column [2, 15] | Microbial growth, 1st Inoculation, 1st sub-column [2, 16] | Microbial growth, 2nd Inoculation, 1st sub-column [2, 16]
4000 ppm: Effective Preservative (ppm) ([2]; Vinyl Acrylic Flat paint)
3: Microbial growth, 1st Inoculation, 1st sub-column ([2]; Acrylic paint, 1000 ppm) | Microbial growth, 1st Inoculation, 2nd sub-column ([2]; Acrylic paint, 1000 ppm) | Microbial growth, 2nd Inoculation, 1st sub-column ([2]; Acrylic paint, 1000 ppm) | Microbial growth, 2nd Inoculation, 2nd sub-column ([2]; Acrylic paint, 1000 ppm) | Microbial growth, 1st Inoculation, 1st sub-column ([2]; Acrylic paint, 1500 ppm) | Microbial growth, 1st Inoculation, 2nd sub-column ([2]; Acrylic paint, 1500 ppm) | Microbial growth, 2nd Inoculation, 1st sub-column ([2]; Acrylic paint, 1500 ppm) | Microbial growth, 2nd Inoculation, 2nd sub-column ([2]; Acrylic paint, 1500 ppm) | Microbial growth, 1st Inoculation, 1st sub-column ([2]; Acrylic paint, 2000 ppm) | Microbial growth, 1st Inoculation, 2nd sub-column ([2]; Acrylic paint, 2000 ppm) | Microbial growth, 2nd Inoculation, 1st sub-column ([2]; Acrylic paint, 2000 ppm) | Microbial growth, 2nd Inoculation, 2nd sub-column ([2]; Acrylic paint, 2000 ppm) | Microbial growth, 1st Inoculation, 1st sub-column ([2]; Acrylic paint, 2500 ppm) | Microbial growth, 1st Inoculation, 2nd sub-column ([2]; Acrylic paint, 2500 ppm) | Microbial growth, 2nd Inoculation, 1st sub-column ([2]; Acrylic paint, 2500 ppm) | Microbial growth, 2nd Inoculation, 2nd sub-column ([2]; Acrylic paint, 2500 ppm) | Microbial growth, 1st Inoculation, 1st sub-column ([2]; Acrylic paint, 3000 ppm) | Microbial growth, 1st Inoculation, 2nd sub-column ([2]; Acrylic paint, 3000 ppm) | Microbial growth, 2nd Inoculation, 1st sub-column ([2]; Acrylic paint, 3000 ppm) | Microbial growth, 2nd Inoculation, 2nd sub-column ([2]; Acrylic paint, 3000 ppm) | Microbial growth, 1st Inoculation, 1st sub-column ([2]; Acrylic paint, 3500 ppm) | Microbial growth, 1st Inoculation, 2nd sub-column ([2]; Acrylic paint, 3500 ppm) | Microbial growth, 2nd Inoculation, 1st sub-column ([2]; Acrylic paint, 3500 ppm) | Microbial growth, 2nd Inoculation, 2nd sub-column ([2]; Acrylic paint, 3500 ppm) | Microbial growth, 1st Inoculation, 1st sub-column ([2]; Acrylic paint, 4000 ppm) | Microbial growth, 1st Inoculation, 2nd sub-column ([2]; Acrylic paint, 4000 ppm) | Microbial growth, 2nd Inoculation, 1st sub-column ([2]; Acrylic paint, 4000 ppm) | Microbial growth, 2nd Inoculation, 2nd sub-column ([2]; Acrylic paint, 4000 ppm) | Microbial growth, 1st Inoculation, 1st sub-column [2, 3] | Microbial growth, 1st Inoculation, 2nd sub-column [2, 3] | Microbial growth, 2nd Inoculation, 1st sub-column [2, 3] | Microbial growth, 2nd Inoculation, 2nd sub-column [2, 3] | Microbial growth, 1st Inoculation, 1st sub-column [2, 4] | Microbial growth, 1st Inoculation, 2nd sub-column [2, 4] | Microbial growth, 2nd Inoculation, 1st sub-column [2, 4] | Microbial growth, 2nd Inoculation, 2nd sub-column [2, 4] | Microbial growth, 1st Inoculation, 1st sub-column [2, 5] | Microbial growth, 1st Inoculation, 2nd sub-column [2, 5] | Microbial growth, 2nd Inoculation, 1st sub-column [2, 5] | Microbial growth, 2nd Inoculation, 2nd sub-column [2, 5] | Microbial growth, 1st Inoculation, 1st sub-column [2, 6] | Microbial growth, 1st Inoculation, 2nd sub-column [2, 6] | Microbial growth, 2nd Inoculation, 1st sub-column [2, 6] | Microbial growth, 2nd Inoculation, 2nd sub-column [2, 6] | Microbial growth, 1st Inoculation, 1st sub-column [2, 7] | Microbial growth, 1st Inoculation, 2nd sub-column [2, 7] | Microbial growth, 2nd Inoculation, 1st sub-column [2, 7] | Microbial growth, 2nd Inoculation, 2nd sub-column [2, 7] | Microbial growth, 1st Inoculation, 1st sub-column [2, 8] | Microbial growth, 1st Inoculation, 2nd sub-column [2, 8] | Microbial growth, 2nd Inoculation, 1st sub-column [2, 8] | Microbial growth, 2nd Inoculation, 2nd sub-column [2, 8] | Microbial growth, 1st Inoculation, 1st sub-column [2, 9] | Microbial growth, 1st Inoculation, 2nd sub-column [2, 9] | Microbial growth, 2nd Inoculation, 1st sub-column [2, 9] | Microbial growth, 2nd Inoculation, 2nd sub-column [2, 9]
>4000 ppm: Effective Preservative (ppm) ([2]; Acrylic Flat paint) | Effective Preservative (ppm) ([2]; Acrylic paint)
1: Microbial growth, 1st Inoculation, 2nd sub-column [2, 15] | Microbial growth, 2nd Inoculation, 2nd sub-column [2, 15]

From patent US20100160445A1, “Synergistic Mixtures of OPP and DGH” (priority 2002, published 2010)
